“And” between values parts separate entries of the source, which are not always exact repeats. Equal values may be shown once. Numbers after ± are expanded uncertainties.
Conditions: Crystal; for mass density: 298.15 K, 101.33 kPa, Pycnometric method; for vapor or sublimation pressure: Calculated from knudsen effusion weight loss

Structure (SMILES): Oc1nncc2ccccc12 [1(2H)-phthalazinone]
- mass density: 1290 ± 20 kg/m3
- vapor or sublimation pressure (348.12 K): 0.0001427 ± 7.2e-06 kPa and 0.0001428 ± 7.2e-06 kPa and 0.0001398 ± 7e-06 kPa
- vapor or sublimation pressure (350.14 K): 0.0001731 ± 8.7e-06 kPa and 0.0001683 ± 8.4e-06 kPa and 0.0001668 ± 8.4e-06 kPa
- vapor or sublimation pressure (352.15 K): 0.0002116 ± 1.1e-05 kPa and 0.0002079 ± 1e-05 kPa
- vapor or sublimation pressure (354.18 K): 0.0002587 ± 1.3e-05 kPa and 0.0002577 ± 1.3e-05 kPa and 0.0002582 ± 1.3e-05 kPa
- vapor or sublimation pressure (356.2 K): 0.0003206 ± 1.6e-05 kPa and 0.0003187 ± 1.6e-05 kPa and 0.0003134 ± 1.6e-05 kPa
- vapor or sublimation pressure (358.15 K): 0.0003799 ± 1.9e-05 kPa and 0.0003853 ± 1.9e-05 kPa and 0.0003771 ± 1.9e-05 kPa
- vapor or sublimation pressure (360.2 K): 0.0004783 ± 2.4e-05 kPa and 0.0004761 ± 2.4e-05 kPa and 0.0004538 ± 2.3e-05 kPa
- vapor or sublimation pressure (362.14 K): 0.0005802 ± 2.9e-05 kPa and 0.0005665 ± 2.8e-05 kPa and 0.0005564 ± 2.8e-05 kPa
- vapor or sublimation pressure (364.18 K): 0.0006992 ± 3.5e-05 kPa and 0.0006815 ± 3.4e-05 kPa and 0.000676 ± 3.4e-05 kPa
- vapor or sublimation pressure (366.14 K): 0.0008356 ± 4.2e-05 kPa and 0.0008316 ± 4.2e-05 kPa and 0.000817 ± 4.1e-05 kPa
- vapor or sublimation pressure (368.13 K): 0.0009681 ± 4.8e-05 kPa and 0.001004 ± 0.0001 kPa and 0.0009903 ± 4.9e-05 kPa

Structure (SMILES): O=c1[nH][nH]c(=O)c2ccccc12 [2,3-dihydro-1,4-phthalazinedione]
- mass density: 1390 ± 20 kg/m3
- vapor or sublimation pressure (428.18 K): 0.0001501 ± 7.5e-06 kPa and 0.00015 ± 7.5e-06 kPa and 0.0001468 ± 7.4e-06 kPa
- vapor or sublimation pressure (430.16 K): 0.0001786 ± 8.9e-06 kPa and 0.0001816 ± 9.1e-06 kPa and 0.0001711 ± 8.6e-06 kPa
- vapor or sublimation pressure (432.24 K): 0.0002109 ± 1.1e-05 kPa and 0.000215 ± 1.1e-05 kPa and 0.0002114 ± 1.1e-05 kPa
- vapor or sublimation pressure (434.18 K): 0.0002433 ± 1.2e-05 kPa and 0.0002441 ± 1.2e-05 kPa
- vapor or sublimation pressure (436.19 K): 0.0002898 ± 1.5e-05 kPa and 0.000293 ± 1.5e-05 kPa and 0.0002878 ± 1.4e-05 kPa
- vapor or sublimation pressure (438.26 K): 0.0003477 ± 1.7e-05 kPa and 0.0003523 ± 1.8e-05 kPa and 0.0003443 ± 1.7e-05 kPa
- vapor or sublimation pressure (440.19 K): 0.0004064 ± 2e-05 kPa and 0.0003929 ± 2e-05 kPa
- vapor or sublimation pressure (442.17 K): 0.000473 ± 2.4e-05 kPa and 0.000486 ± 2.4e-05 kPa
- vapor or sublimation pressure (444.26 K): 0.0005785 ± 2.9e-05 kPa and 0.0005761 ± 2.9e-05 kPa
- vapor or sublimation pressure (446.19 K): 0.0006629 ± 3.3e-05 kPa and 0.0006749 ± 3.4e-05 kPa and 0.0006616 ± 3.3e-05 kPa
- vapor or sublimation pressure (448.22 K): 0.0007985 ± 4e-05 kPa and 0.0007997 ± 4e-05 kPa and 0.0007669 ± 3.8e-05 kPa
- vapor or sublimation pressure (450.28 K): 0.0009283 ± 4.6e-05 kPa and 0.0009382 ± 4.7e-05 kPa

Source: the NIST ThermoML archive (doi:10.1016/j.jct.2008.01.010)
